Data on 14 compounds can be found in patent US6451288B1, “Method of treating lung diseases with uridine 5′-diphosphate and analogs thereof” (The University of North Carolina at Chapel Hill, priority 1997, dated 2002).

As usually defined, the EC50 is the concentration at which the effect is half-maximal. As a reminder, the half-life is how long it takes for the measured level to halve.

The target of series [1] is T1, human P2Y6 receptor (Homo sapiens, UniProt Q15077).
T1 construct: expressed in transfected cells
The series is described as follows: Inositol phosphate accumulation in 1321N1 astrocytoma cells overexpressing the human P2Y6 receptor. To be noted: 60 min, hexokinase/glucose present. The series is classed as cell-based. How it is done: The following method was used for measuring inositol phosphate accumulation of the UDP analogs described within this example as drugs. 1321N1 astrocytoma cells, stably overexpressing the human P2Y6 receptor (Nicholas, et al., Mol. Pharmacol. 50, 224-229 (1996)), were seeded into 96 well plates (7500 cells/well) in DMEM-H supplemented with 10% FCS. After 48 hours, the growth media was replaced with inositol-free DMEM-H supplemented with 2.5% dialyzed FCS and [^3H]-inositol (0.2 uCi/well) to radiolabel hormone-responsive inositol phospholipid pools. Cells were stimulated 48 hours later. At the time of assay, the culture media was supplemented with 25 mM HEPES (pH 7.4) and 10 mM […] to prevent hydrolysis of [^3H]-inositol phosphates. In addition, hexokinase (0.03 U/well) and glucose (50 mM final concentration) was added to the cultures to provide an enzymatic mechanism for the depletion of nucleoside triphosphates contaminating drug solutions or released from cells prior to/or during cell stimulation reactions. Drugs were diluted in phosphate buffered saline containing hexokinase/glucose and incubated at 37° for 30 minutes prior to addition to cells. Reactions were terminated after 60 minutes by rapid aspiration of media followed by the addition of ice cold EDTA (1.0 mM) and incubation on ice for at least 15 minutes prior to resolution of [^3H]-inositol phosphates by ion exchange chromatography as described (Brown, et. al., supra).

Series [2] has as its system human nasal epithelial cells. The series is described as follows: Cytosolic Ca2+ measurement (Fura-2) in human nasal epithelial cells. It is filed as cell-based. How it is done: (§1) Human nasal epithelial cells were harvested from turbinates using protease XIV (Sigma, St. Louis, Mo.) for 24-48 h at 4° C., as previously described. R. Wu, et al., Am. Rev. Respir. Dis. 132, 311-320 (1985). Cytosolic Ca^2+ and inositol phosphate measurements were made on nasal cell monolayers plated on porous Transwell Col filters (pore diameter 0.45 μm; Costar, Cambridge, Mass.) and maintained in Ham's F12 media supplemented with 10 ng/mL epidermal growth factor, 3.75 ng/mL endothelial cell growth factor, 500 ng/mL hydrocortisone, 5 ng/mL insulin, and 1 mM CaCl2 (Ham's F12+4X medium). Assays were carried out 7 to 10 days after seeding, a time coincident with the development of the maximal transepithelial potential difference according to N. Nakahata & T. K. Harden, Biochem. J. 241, 337-344 (1987).
(§2) Nasal cells grown on Transwell Col filters affixed to O-rings were maintained in F12+4X medium and studied 7-10 days after cell plating as described above. For Ca^2+i measurements, cells were loaded with Fura-2 and mounted in a miniature Ussing chamber over an objective of a microscope (Zeiss) coupled to a microfluorimeter, and cytosolic Ca^2+i levels were quantitated as previously described in Paradiso et al., supra. The fluorescence intensity ratio (excitation 340/380; emission λ 450 nm) was collected from a field of 30-40 nasal cells on monolayers and converted to Ca^2+ as previously described in E. H. Larsen et al, J. Physiol. 424, 109-131 (1990). For simultaneous measurements of Cl^− secretion, the transepithelial potential difference (TEP) was measured by a Voltage-Clamp/Pulse Generator (Model VCC600, Physiologic Instruments, San Diego, Calif.) and recorded on a two-channel recorder (Linsesis Model L200S). To calculate changes in Cl^− secretory current (ΔICl^−), a defined 1 sec current pulse was delivered across the monolayer every 10 sec. The nasal tissue was converted from its native Na^+ absorptive state to a Cl^− secretory state by exposing monolayers to a luminal medium containing 0 Na^+/low Cl^− and to a basolateral medium of Krebs bicarbonate Ringer solution.

The subject of series [3] is human nasal epithelial cells. The series is described as follows: Cl- secretion (transepithelial potential difference, Ussing chamber) in human nasal epithelial cells. The series is classed as cell-based. How it is done:
as §1, §2

The test system of series [4] is human nasal epithelial cells. Kind of series: Hydrolysis of [3H]UTP and [3H]UDP on human nasal epithelial cell surfaces. The series is classed as in vitro ADME. To be noted: for Nucleotide Hydrolysis MUCOSAL / Nucleotide Hydrolysis SEROSAL: 20 min incubation period, mean ± range of two experiments; for Nucleotide Hydrolysis SEROSAL: serosal surface. How it is done: (§3) Nasal monolayers were grown to confluence on 6.5 mm Transwells (Costar) as indicated above. The cells were washed twice and preincubated with 300 μl HEPES-buffered (pH, 7.4) DMEM medium for at least one hour prior to the addition of the [^3H]-nucleotides to ensure that any endogeneously released ATP was degraded. Incubations were initiated by addition of 2 μM [^3H]UTP or [^3H]UDP (0.5 μCi each) to either cell surface. Incubations were terminated at the indicated times by transferring the medium to a tube containing 30 μl 50 mM EDTA and boiled for 2 min. Nucleotides were separated by HPLC (Shimadzu Scientific Instruments, Inc., Columbia, Md.) via a strong anion exchange column (Rainin Instrument Co., Emeryville, Calif.) using a two solvent system consisting of buffer A (45 mM ammonium formate, pH 4.6) and buffer B (250 mM sodium phosphate, pH 2.7). A linear gradient was developed from 100% buffer A to 100% B during the first 25 min. The column then was eluted with 100% buffer B for the […] and with 100% buffer A for an additional 15 min from 45 to 60 min. Absorbance at 260 nm was monitored with a LSA UV detector (Shimadzu), and radioactivity was monitored on-line with a Flo-One detector (Packard Instrument Co., Meridien, Conn.). [^3H]Nucleotides and [^3H]nucleosides were quantitated as previously described. Id. Confluent polarized cells were incubated for 20 min at 37° C. in the presence of 1 μM (0.2 μCi) of [3H]UTP, [^3H]UDP, or [^3H]UDP combined with 100 μM ATP. All additions were to the mucosal bath (300 μl final volume). Incubations were terminated by transferring the mucosal medium to an Eppendorf tube containing 30 μl 50 mM EDTA, followed by boiling. [^3H]Species were separated by HPLC as indicated in Example 6. Hydrolysis of both [^3H]UTP and [^3H]UDP on the surface of human nasal epithelial cells was determined on both cell surfaces by the following procedures: primary cultures of HNE cells were grown to confluence on 6.5 mm Transwells as a polarized epithelium. The cells were washed twice with pre-warmed DMEM-HEPES medium (pH 7.4), and were pre-incubated for 1 hour at 37° C with 0.5 mL of medium added on each side. Incubations were initiated by the addition 50 μl of 10 μM (0.5 μCi) [^3H]UTP or [^3H]UDP on the indicated cell surface. Medium samples were collected during a 20 min incubation period and analyzed by HPLC as described in Example 6. The values represent the mean (±range from the mean) from two experiments performed with duplicate samples.

In series [5] the test system is human nasal epithelial cells. Kind of series: [3H]inositol phosphate formation in polarized human nasal epithelial cells. The series is classed as cell-based. To be noted: Homo sapiens, Epithelial cell, 10 min; added to mucosal medium, 10 min; read-out: EC50 for stimulating inositol phosphate formation. How it is done: as §1
Confluent human nasal epithelial cells as described in Example 1 were labeled for 18 h in inositol-free DMEM containing 4.5g/L glucose and 5 μCi/mL of [^3H]myo-inositol. These cells were pre-incubated with 10 mM LiCl and challenged with agonists for an additional 10 min. No changes of medium were made subsequent to addition of [^3H]myo-inositol to avoid release of endogenous ATP from stressed cells. E. R. Lazarowski et al., Br. J Pharmacol. 116, 1619-1627 (1995). Incubations were terminated by addition of 5% ice-cold trichloroacetic acid and the resultant [^3H]inositol phosphates were separated on Dowex AG1-X8 columns as described in A. M. Paradiso et al., Nature 377, 643-646 (1995).

Series [6] in a line: Hydrolysis of [3H]UTP and [3H]UDP on human nasal epithelial cell surfaces. The series is classed as in vitro ADME. To be noted: human, pH 7.4; mucosal, time course; read-out: Half life (t½). How it is done:
as §3

T1 sequence (Q15077 whole entry): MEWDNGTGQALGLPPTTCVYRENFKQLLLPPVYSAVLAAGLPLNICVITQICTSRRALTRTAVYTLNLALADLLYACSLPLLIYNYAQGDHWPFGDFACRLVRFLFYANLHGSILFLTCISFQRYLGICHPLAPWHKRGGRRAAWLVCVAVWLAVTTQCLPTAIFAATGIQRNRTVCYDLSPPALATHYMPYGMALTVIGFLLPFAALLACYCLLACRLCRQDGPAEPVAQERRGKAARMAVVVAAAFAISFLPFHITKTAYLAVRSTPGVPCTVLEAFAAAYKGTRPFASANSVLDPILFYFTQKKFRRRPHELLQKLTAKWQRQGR

`O=c1nc(NC2CCCC2)ccn1[C@@H]1O[C@H](COP(=O)(O)OP(=O)(O)O)[C@@H](O)[C@H]1O` [Compound I, N-Cyclopentylcytidine 5′-diphosphate] had a 50% effective concentration (EC50) in series [1] of 8.6 µM.
With `COc1ccn([C@@H]2O[C@H](COP(=O)(O)OP(=O)(O)O)[C@@H](O)[C@H]2O)c(=O)n1` [Compound D, 4-Methoxyuridine 5′-diphosphate], the midpoint of the response in series [1], the EC50, lay at 4.7 µM.
Take `O=c1ccn([C@@H]2O[C@H](COP(=O)(O)OP(=O)(O)OP(=O)(O)O)[C@@H](O)[C@H]2O)c(=O)[nH]1` [UTP, uridine 5′-triphosphate, reference compound]: the ΔCa2+, UDP-treated cells in series [2] (UDP-treated cells, n=8) stood at 310 ± 35 nM. Besides, in series [2] (control cells, n=19), the “ΔCa2+, control cells” value came to 374 ± 24 nM. Besides, in series [3] (100 μM, mucosal), the “Cl- secretory response (ΔICl-), mucosal bath” value is on record as 74±11 μA/cm^2. Also, in series [3] (100 μM, serosal), the “Cl- secretory response (ΔICl-), serosal bath” value stood at 34±3 μA/cm^2. Also, the ΔCl-, UDP-treated cells in series [3] (UDP-treated cells, n=8, the values are: ΔICl- (Cl- secretory current)) was -61 ± 10 µA/cm². The “ΔICl-, control cells” value in series [3] (control cells, n=12) was −74±11 μA/cm^2. Further, the “Hydrolysis rate of mucosal UTP relative to mucosal UDP” value in series [4] (mucosal) is recorded as 2-3 fold. Further, the EC50 in series [5] was determined as 280 ± 35 nM.
In turn, `CCCCCCOc1ccn([C@@H]2O[C@H](COP(=O)(O)OP(=O)(O)O)[C@@H](O)[C@H]2O)c(=O)n1` [Compound B, 4-Hexyloxyuridine 5′-diphosphate] yielded an EC50 in series [1] of 3 µM.
Consider `CCCCCCNc1ccn([C@@H]2O[C@H](COP(=O)(O)OP(=O)(O)O)[C@@H](O)[C@H]2O)c(=O)n1` [Compound E, N-hexylcytidine 5′-diphosphate], for which the response in series [1] was half-maximal at 25.5 µM (EC50).
Same read-out and setting: the value for `Cc1cn([C@@H]2O[C@H](COP(=O)(O)OP(=O)(O)O)[C@@H](O)[C@H]2O)c(=O)[nH]c1=O` [Compound A, 5-Methyluridine 5′-diphosphate] was 0.5 µM; that for `O=c1nc(N2CCOCC2)ccn1[C@@H]1O[C@H](COP(=O)(O)OP(=O)(O)O)[C@@H](O)[C@H]1O` [Compound F, 4-(N-morpholino)uridine 5′-diphosphate] was 55.1 µM.
Take `O=c1ccn([C@@H]2O[C@H](COP(=O)(O)OP(=O)(O)O)[C@@H](O)[C@H]2O)c(=O)[nH]1` [[^3H]UDP]: in series [4] (mucosal surface), the “Nucleotide Hydrolysis MUCOSAL” value stood at 87 ± 6. Besides, the “Nucleotide Hydrolysis SEROSAL” value in series [4] is 70 ± 9. Further, the half-life in series [6] was 27 ± 3 min.
Consider `CCCCCCSc1ccn([C@@H]2O[C@H](COP(=O)(O)OP(=O)(O)O)[C@@H](O)[C@H]2O)c(=O)n1` [Compound J, 4-Hexylthiouridine 5′-diphosphate], for which the concentration for a half-maximal effect (EC50) in series [1] turned out to be 1.8 µM.
With `CN(C)c1ccn([C@@H]2O[C@H](COP(=O)(O)OP(=O)(O)O)[C@@H](O)[C@H]2O)c(=O)n1` [Compound C, N,N-dimethylcytidine 5′-diphosphate], the EC50 in series [1] turned out to be 41.7 µM.
In the case of `O=c1[nH]c(=O)n([C@@H]2O[C@H](COP(=O)(O)OP(=O)(O)O)[C@@H](O)[C@H]2O)cc1C#Cc1ccccc1` [Compound G, 5-(Phenylethynyl)uridine 5′-diphosphate], in series [1], it took 0.02 µM to reach a half-maximal effect (EC50).
For the compound `O=c1ccn([C@@H]2O[C@H](COP(=O)(O)OP(=O)(O)OP(=O)(O)O)[C@@H](O)[C@H]2O)c(=O)[nH]1` [[^3H]UTP], in series [4] (1 μM, 20 min, mucosal surface, 37° C.), the Hydrolysis was determined as 73±16%. The “Nucleotide Hydrolysis MUCOSAL” value in series [4] (mucosal surface) is listed as 17 ± 22. The “Nucleotide Hydrolysis SEROSAL” value in series [4] is listed as 98 ± 11. The half-life in series [6] worked out at 14 ± 2 min.
With `Nc1ncnc2c1ncn2[C@@H]1O[C@H](COP(=O)(O)OP(=O)(O)OP(=O)(O)O)[C@@H](O)[C@H]1O` [ATP, reference compound], in series [2] (after multiple additions of UDP), the “Responses following multiple additions of UDP” value was “retained”.
In turn, `O=c1ccn([C@@H]2O[C@H](COP(=O)(O)OP(=O)(O)O)C[C@H]2O)c(=O)[nH]1` [Compound H, 3′-Deoxyuridine 5′-diphosphate] had an EC50 in series [1] of 2.1 µM.
